Assay results: US8710091B2, “Imidazolidine-2,4-dione derivatives, and use thereof as a cancer drug” (Ipsen Pharma S.A.S., priority 2009, dated 2014)

Assays:
[1] = tested on: DU145 cells; assay: Antiproliferative activity on DU-145 in complete medium (WST-1); assay type: cell-based; settings: Homo sapiens, 144 h incubation, read-out: IC50 on the DU145 cells in culture (concentration inhibiting cell proliferation by 50%)
Experimental: The anti-proliferative activity of the compounds of the present invention is determined on DU-145 in complete medium.
Maintenance of the DU-145 line is carried out in DMEM, 10% of foetal calf serum, 2 mM of glutamine, 100 U/ml of penicillin, 0.1 mg/ml of streptomycin. • Seeding the plates: • The DU145 line is seeded at 400 or 800 cells/well in 90 μl of DMEM complete medium in 96-well plates (TPP). • Treatment of the cells: 24 h after the seeding, the cells are treated with 10 μl/well of compound diluted in the culture medium. Experiments showing the dose-effect of the compound are carried out on a scale of 1 nM to 100 μM. The concentrations used are the following: 1 nM/10/30/100/300/1000/3000/10,000/100,000 nM. The cells are incubated for 144 h at 37° C., 5% CO2. • Reading: On D6, 10 μL, of cell proliferation reagent WST-1 (Roche ref 1644807) is added to each well. After incubation for 2 to 4 hours at 37° C., 5% CO2, the absorbance at 450 nm is measured by spectrophotometry (Envision, Perkin Elmer). • Results: The experiments are carried out in duplicate and the best compounds are tested twice. […] 4. Measurement of the Disappearance of the Androgen Receptor

[2] = tested on: LNCaP cells; assay: Anti-proliferative activity on LNCaP in complete medium (WST-1); assay type: cell-based; settings: Homo sapiens, 144 h, 144 h incubation, read-out: IC50 on the LNCaP cells in culture (concentration inhibiting cell proliferation by 50%)
Experimental: The anti-proliferative activity of the compounds of the present invention is determined on LNCaP in complete medium by applying the following experimental procedure:
The LNCaP cell type (ATCC, 1740) originating from a prostate carcinoma expressing the androgen receptor, this line is hormone-dependent.
Maintenance of the LNCaP line is carried out in complete culture medium: RPMI, 10% of foetal calf serum, 2 mM glutamine, 100 U/ml penicillin, 0.1 mg/ml of streptomycin and 0.01M HEPES, 1 mM sodium pyruvate, 40% of D-glucose. • Seeding the plates:
The LNCaP line is seeded at 20,000 cells/well in 90 μl of complete medium in 96-well plates coated with poly-D-lysine (Biocoat, Costar). • Treatment of the cells: 24 h after the seeding, the cells are treated with 10 μl/well of compound diluted in the culture medium. Experiments of the effect of doses of the compound are carried out on a scale of 1 nM to 100 µM. The concentrations used are the following: 1 nM/10/30/100/300/1000/3000/10,000/100,000 nM. Testosterone (SIGMA T1500) is used as a reference and tested at the same concentrations. The cells are incubated for 144 h at 37° C., 5% CO2. • Reading: On D6, 10 μL of the “WST-1 cell proliferation” reagent (Roche ref 1644807) is added to each well. After incubation for 2 hours at 37° C., 5% CO2, the absorbance at 450 nm is measured by spectrophotometry (Envision, Perkin Elmer). • Results: The experiments are carried out in duplicate and the best compounds are tested twice. […] 2. Antiproliferative Activity on LNCaP in Medium without Steroids: […]

Row | SMILES | IC50 [1] | IC50 [2]
1 | CCC(C)NC(=O)Nc1ccc(N2C(=O)N(CCCCCCCCC[S+]([O-])CCCC(F)(F)C(F)(F)F)C(C)(C)C2=O)cc1C (stereo not shown) [Example 28, 1-[4-(4,4-dimethyl-2,5-dioxo-3-{9-[(4,4,5,5,5-pentafluoropentyl)sulphinyl]nonyl}imidazolidin-1-yl)-2-methylphenyl]-3-(1-methylpropyl)urea] | > 10 µM | < 2 µM
2 | CC1(C)C(=O)N(c2ccc([N+](=O)[O-])c(C(F)(F)F)c2)C(=O)N1CCOCCOCC[S+]([O-])CCCC(F)(F)C(F)(F)F (stereo not shown) [Example 37, 5,5-dimethyl-3-[4-nitro-3-(trifluoromethyl)phenyl]-1-[2-(2-{2-[(4,4,5,5,5-pentafluoropentyl)sulphinyl]ethoxy}ethoxy)ethyl]imidazolidine-2,4-dione] | > 10 µM | < 2 µM
3 | CC1(C)C(=O)N(c2ccc([N+](=O)[O-])c(C(F)(F)F)c2)C(=O)N1CCOCCOCCSCCCC(F)(F)C(F)(F)F [Example 36, 5,5-dimethyl-3-[4-nitro-3-(trifluoromethyl)phenyl]-1-[2-(2-{2-[(4,4,5,5,5-pentafluoropentyl)sulphanyl]ethoxy}ethoxy)ethyl]imidazolidine-2,4-dione] | > 10 µM | –
4 | CC1(C)C(=O)N(c2ccc([N+](=O)[O-])c(C(F)(F)F)c2)C(=O)N1CCCCCCCCCS(=O)(=O)CCCC(F)(F)C(F)(F)F [Example 3, 5,5-dimethyl-3-[4-nitro-3-(trifluoromethyl)phenyl]-1-{9-[(4,4,5,5,5-pentafluoropentyl)sulphonyl]nonyl}imidazolidine-2,4-dione] | > 10 µM | < 2 µM
5 | CC1(C)C(=O)N(c2ccc(C#N)c(C(F)(F)F)c2)C(=O)N1CCCCCCCCC[S+]([O-])CCCC(F)(F)C(F)(F)F (stereo not shown) [Example 20, 4-(4,4-dimethyl-2,5-dioxo-3-{9-[(4,4,5,5,5-pentafluoropentyl)sulphinyl]nonyl}imidazolidin-1-yl)-2-(trifluoromethyl)benzonitrile] | > 10 µM | < 2 µM
6 | CC1(C)C(=O)N(c2ccc([N+](=O)[O-])c(C(F)(F)F)c2)C(=O)N1CCCCCCCCCSCCC(F)(F)C(F)(F)C(F)(F)C(F)(F)F [Example 14, 5,5-dimethyl-3-[4-nitro-3-(trifluoromethyl)phenyl]-1-{9-[(3,3,4,4,5,5,6,6,6-nonafluorohexyl)thio]nonyl}imidazolidine-2,4-dione] | > 10 µM | –
7 | CC1(C)C(=O)N(c2ccc([N+](=O)[O-])c(C(F)(F)F)c2)C(=O)N1CCCCCCCCCSCCCC(F)(F)C(F)(F)F [Example 1, 5,5-dimethyl-3-[4-nitro-3-(trifluoromethyl)phenyl]-1-{9-[(4,4,5,5,5-pentafluoropentyl)thio]nonyl}imidazolidine-2,4-dione] | > 10 µM | < 2 µM
8 | CC1(C)C(=O)N(c2ccc([N+](=O)[O-])c(C(F)(F)F)c2)C(=O)N1CCCCCCCCC[S+]([O-])CCCC(F)(F)C(F)(F)F (stereo not shown) [Example 2, 5,5-dimethyl-3-[4-nitro-3-(trifluoromethyl)phenyl]-1-{9-[(4,4,5,5,5-pentafluoropentyl)sulphinyl]nonyl}imidazolidine-2,4-dione] | > 10 µM | –
9 | Cc1cc(N2C(=O)N(CCCCCCCCC[S+]([O-])CCCC(F)(F)C(F)(F)F)C(C)(C)C2=O)ccc1N (stereo not shown) [Example 26, 3-(4-amino-3-methylphenyl)-5,5-dimethyl-1-{9-[(4,4,5,5,5-pentafluoropentyl)sulphinyl]nonyl}imidazolidine-2,4-dione] | > 10 µM | –
10 | CC1(C)C(=O)N(c2ccc([N+](=O)[O-])c(C(F)(F)F)c2)C(=O)N1CCCCCCCC[S+]([O-])CCCC(F)(F)C(F)(F)F (stereo not shown) [Example 7, 5,5-dimethyl-3-[4-nitro-3-(trifluoromethyl)phenyl]-1-{8-[(4,4,5,5,5-pentafluoropentyl)sulphinyl]octyl}imidazolidine-2,4-dione] | > 10 µM | < 2 µM
11 | CC1(C)C(=O)N(c2ccc([N+](=O)[O-])c(C(F)(F)F)c2)C(=O)N1CCCCCCCCCCC[S+]([O-])CCCC(F)(F)C(F)(F)F (stereo not shown) [Example 11, 5,5-dimethyl-3-[4-nitro-3-(trifluoromethyl)phenyl]-1-{11-[(4,4,5,5,5-pentafluoropentyl)sulphinyl]undecyl}imidazolidine-2,4-dione] | > 10 µM | < 2 µM
12 | CC(=O)N(C)c1ccc(N2C(=O)N(CCCCCCCCC[S+]([O-])CCCC(F)(F)C(F)(F)F)C(C)(C)C2=O)cc1C(F)(F)F (stereo not shown) [Example 40, N-[4-(4,4-dimethyl-2,5-dioxo-3-{9-[(4,4,5,5,5-pentafluoropentyl)sulphinyl]nonyl}imidazolidin-1-yl)-2-(trifluoromethyl)phenyl]-N-methylacetamide] | > 10 µM | < 2 µM
13 | CC1(C)C(=O)N(c2ccc([N+](=O)[O-])c(C(F)(F)F)c2)C(=O)N1CCCCCCCCCS(=N)(=O)CCCC(F)(F)C(F)(F)F (stereo not drawn) [Example 46, 5,5-dimethyl-3-[4-nitro-3-(trifluoromethyl)phenyl]-1-{9-[S-(4,4,5,5,5-pentafluoropentyl)sulphonimidoyl]nonyl}imidazolidine-2,4-dione] | – | < 2 µM
14 | CC1(C)C(=O)N(c2ccc([N+](=O)[O-])c(C(F)(F)F)c2)C(=O)N1CCCCCCCCCCSCCCC(F)(F)C(F)(F)F [Example 8, 5,5-dimethyl-3-[4-nitro-3-(trifluoromethyl)phenyl]-1-{10-[(4,4,5,5,5-pentafluoropentyl)thio]decyl}imidazolidine-2,4-dione] | > 10 µM | –
15 | CC(=O)Nc1ccc(N2C(=O)N(CCOCCOCC[S+]([O-])CCCC(F)(F)C(F)(F)F)C(C)(C)C2=O)cc1C(F)(F)F (stereo not shown) [Example 39, N-[4-{4,4-dimethyl-2,5-dioxo-3-[2-(2-{2-[(4,4,5,5,5-pentafluoropentyl)sulphinyl]ethoxy}ethoxy)ethyl]imidazolidin-1-yl}-2-(trifluoromethyl)phenyl]acetamide] | > 10 µM | –
16 | CC1(C)C(=O)N(c2ccc([N+](=O)[O-])cc2C(F)(F)F)C(=O)N1CCCCCCCCC[S+]([O-])CCCC(F)(F)C(F)(F)F (stereo not shown) [Example 35, 5,5-dimethyl-3-[4-nitro-2-(trifluoromethyl)phenyl]-1-{9-[(4,4,5,5,5-pentafluoropentyl)sulphinyl]nonyl}imidazolidine-2,4-dione] | > 10 µM | –
17 | CC1(C)C(=O)N(c2ccc([N+](=O)[O-])c(C(F)(F)F)c2)C(=O)N1CCCCCCCCC/S(CCCC(F)(F)C(F)(F)F)=N/C(=O)C(F)(F)F (stereo not shown) [Example 44, N-[(1Z)-(9-{5,5-dimethyl-3-[4-nitro-3-(trifluoromethyl)phenyl]-2,4-dioxoimidazolidin-1-yl}nonyl)(4,4,5,5,5-pentafluoropentyl)-λ^4-sulphanylidene]-2,2,2-trifluoroacetamide] | > 10 µM | –
18 | CC1(C)C(=O)N(c2ccc([N+](=O)[O-])c(C(F)(F)F)c2)C(=O)N1CCCCCCCCCC[S+]([O-])CCCC(F)(F)C(F)(F)F (stereo not shown) [Example 9, 5,5-dimethyl-3-[4-nitro-3-(trifluoromethyl)phenyl]-1-{10-[(4,4,5,5,5-pentafluoropentyl)sulphinyl]decyl}imidazolidine-2,4-dione] | > 10 µM | –
19 | CC(=O)Nc1ccc(N2C(=O)N(CCOCCOCCSCCCC(F)(F)C(F)(F)F)C(C)(C)C2=O)cc1C(F)(F)F [Example 38, N-[4-{4,4-dimethyl-2,5-dioxo-3-[2-(2-{2-[(4,4,5,5,5-pentafluoropentyl)sulphanyl]ethoxy}ethoxy)ethyl]imidazolidin-1-yl}-2-(trifluoromethyl)phenyl]acetamide] | > 10 µM | –
20 | CC1(C)C(=O)N(c2ccc(N)c(C(F)(F)F)c2)C(=O)N1CCCCCCCCCSCCCC(F)(F)C(F)(F)F [Example 16, 3-[4-amino-3-(trifluoromethyl)phenyl]-5,5-dimethyl-1-{9-[(4,4,5,5,5-pentafluoropentyl)thio]nonyl}imidazolidine-2,4-dione] | > 10 µM | –
